Measurements published in ChEMBL document CHEMBL4402520, “Synthetic routes and structure-activity relationships (SAR) of anti-HIV agents: A key review” (Eur J Med Chem, 2019).
In brackets after ≈: the same amount, converted by molar mass. Values belong to the molecule of their own block, whether it stands above or below them.

Key:
[1] = system: Human immunodeficiency virus; assay: Antiviral activity against HIV; assay type: functional, organism-based; conditions: Human immunodeficiency virus 1
[2] = system: Human immunodeficiency virus 1; assay: Antiviral activity against wild type HIV1; assay type: functional, organism-based
[3] = system: Human immunodeficiency virus 1; assay: Antiviral activity against HIV1 3B after 48 hrs […]; assay type: functional, organism-based; conditions: Human immunodeficiency virus 1, 3B
[4] = system: Human immunodeficiency virus 2; assay: Antiviral activity against HIV2 ROD after 48 hrs […]; assay type: functional, organism-based; conditions: Human immunodeficiency virus 2, ROD
[5] = system: Human immunodeficiency virus 1; assay: Antiviral activity against HIV1 3B infected in human MT4 cells; assay type: functional, organism-based; conditions: Human immunodeficiency virus 1, 3B
[6] = system: Human immunodeficiency virus 1; assay: Antiviral activity against wild type HIV1 3B infected in human TZM-bl cells; assay type: functional, organism-based; conditions: Human immunodeficiency virus 1, 3B
[7] = system: TZM; assay: Cytotoxicity against human TZM-bl cells; assay type: functional
[8] = system: C8166; assay: Cytotoxicity against human C8166 cells assessed as reduction in cell viability; assay type: functional, cell-based
[9] = Selectivity index, ratio of CC50 for human TZM-bl cells to EC50 for wild type HIV1 3B infected in human TZM-bl cells; assay type: toxicity, cell-based; conditions: read-out: Selectivity Index
[10] = system: Human immunodeficiency virus 1; assay: Antiviral activity against wild type HIV1 3B infected in human TZM-bl cells after 4 days by ELISA; assay type: functional, organism-based; conditions: Human immunodeficiency virus 1, 3B, 96 h
[11] = system: Human immunodeficiency virus 1; assay: Antiviral activity against HIV1; assay type: functional, organism-based
[12] = system: Human immunodeficiency virus 1; assay: Antiviral activity against HIV1 3B infected in human C8166 cells; assay type: functional, organism-based
[13] = Selectivity index, ratio of CC50 for human C8166 cells to EC50 for HIV1 3B infected in human C8166 cells; assay type: toxicity, cell-based; conditions: read-out: Selectivity Index
[14] = system: TZM; assay: Cytotoxicity against human TZM-bl cells assessed as reduction in cell viability after 4 hrs by MTT assay; assay type: functional
[15] = system: Human immunodeficiency virus 1; assay: Antiviral activity against wild type HIV1 3B infected in human TZM-bl cells assessed as viral infection at 50 ug/ml after 1 hr relative to control; assay type: functional; conditions: Human immunodeficiency virus 1, 3B
[16] = Inhibition of HIV reverse transcriptase; parameters: species or system Human immunodeficiency virus
[17] = system: Human immunodeficiency virus 2; assay: Antiviral activity against HIV2 ROD; assay type: functional, organism-based; conditions: Human immunodeficiency virus 2, ROD
[18] = system: Human immunodeficiency virus 1; assay: Antiviral activity against HIV1 3B; assay type: functional, organism-based; conditions: Human immunodeficiency virus 1, 3B
[19] = target: Human immunodeficiency virus type 1 reverse transcriptase (Human immunodeficiency virus 1, UniProt Q72547); assay: Inhibition of HIV-1 reverse transcriptase after 1 hr by ELISA
[20] = system: Human immunodeficiency virus 1; assay: Antiviral activity against wild type HIV1 3B infected in human MT4 cells using [3H]dGTP by radio-labelled binding assay; assay type: functional, organism-based; conditions: Human immunodeficiency virus 1, 3B
[21] = Human immunodeficiency virus 1, 3B, C8166

SMILES: Cc1cc(C)cc(Cn2c(=O)cc(N)n(Cc3ccncc3)c2=O)c1
EC50 [1]: 30 nM

SMILES: O=C(CSC1[Se]N=NC1c1ccc(Cl)c(Cl)c1)Nc1ccccc1Br (centres undefined)
EC50 [3]: > 23.6 µM
EC50 [4]: > 23.6 µM

SMILES: Cc1cc(C)cc(S(=O)(=O)c2c(C(=O)NCc3ccncc3)[nH]c3ccc(Cl)cc23)c1
EC50 [5]: 2 nM

SMILES: CCOC(=O)C(N)(c1c[nH]c2cccc(C(=O)OC)c12)C(F)(F)F (centres undefined)
EC50 [6]: 60 nM
CC50 [7]: 110 µM

SMILES: Cc1cn([C@H]2C[C@H](N=[N+]=[N-])[C@@H](CO)O2)c(=O)[nH]c1=O [ZIDOVUDINE]
IC50 [8]: 1570 µg/mL (≈ 5860 µM)

SMILES: NC1=CNC(=O)/C1=N/Nc1ccc(Br)cc1
Activity [14]: 40%
inhibition at 50 µg/mL [15]: 98%

SMILES: Cc1ccc(NC(=O)CSC2[Se]N=NC2c2ccc(Cl)c(Cl)c2)cc1 (centres undefined)
EC50 [3]: 6.65 µM
EC50 [4]: > 13.3 µM

SMILES: CC(=O)c1ccc(NC(=O)CSC2[Se]N=NC2c2ccc(Cl)c(Cl)c2)c(Br)c1 (centres undefined)
EC50 [3]: 2.45 µM
EC50 [4]: > 18.9 µM

SMILES: Cc1ccccc1NC(=O)CSC1[Se]N=NC1c1ccc(Cl)c(Cl)c1 (centres undefined)
EC50 [3]: 5.56 µM
EC50 [4]: > 22.3 µM

SMILES: Cn1cc(C(=O)O)c(=O)c2ccc(N3CCN(c4nccs4)CC3)nc21
EC50 [17]: 0.922 µg/mL (≈ 2.48 µM)
EC50 [18]: 3.15 µg/mL (≈ 8.48 µM)

SMILES: Cc1cccc(N2C(=O)CSC2c2c(F)cccc2Cl)n1 (centres undefined)
IC50 [20]: 53 nM

Second part, led by results:

EC50 [2]: 5.8 nM
SMILES: N#Cc1ccc(Nc2nccc(Oc3ccccc3F)n2)cc1

EC50 [10]: 12.3 µM
SMILES: O=C1OC(c2ccccc2Cl)C(Cl)c2ccccc21 (centres undefined)
selectivity ratio [9]: 11.1
CC50 [7]: 136 µM

IC50 [11]: 800 nM
SMILES: CC(C)(C)OC(=O)n1ccc2ccc(-c3ccc4ccn(Cc5cccc(C(=O)O)c5)c4c3)cc21

EC50 [12, 21]: 0.012 nM
SMILES: CCc1c(CC2CCCCC2)nc(SCC(=O)c2ccccc2)[nH]c1=O
selectivity ratio [13]: 6.32e+06

EC50 [10]: 29.3 µM
SMILES: CC1OC(=O)c2ccccc2C1(Cl)c1ccccc1 (centres undefined)
selectivity ratio [9]: 10
CC50 [7]: 293 µM

EC50 [10]: 314 µM
SMILES: CCCC1OC(=O)c2ccccc2C1(Cl)c1ccc(F)cc1 (centres undefined)
selectivity ratio [9]: 0.8
CC50 [7]: 251 µM

EC50 [11]: 150 nM
SMILES: COc1ccc(CNC(=O)c2cc(C(C)(C)NC(=O)OCc3ccccc3)cc(O)c2O)cc1

IC50 [12, 21]: 760 nM
SMILES: O=C(CC1(O)C(=O)Nc2ccc(Cl)cc21)c1ccccc1Cl (centres undefined)

IC50 [16]: > 100 µM
SMILES: O=C(CN(Cc1ccccc1)c1ccc(Cl)cc1)N1CCN(C(c2ccccc2)c2ccccc2)CC1

EC50 [12]: 0.012 to 101 nM
SMILES: CC(C)c1c(CC2CCCCC2)nc(SCC(=O)c2ccccc2)[nH]c1=O
selectivity ratio [13]: 691 to 6.32e+06

EC50 [10]: 242 µM
SMILES: CC1OC(=O)c2ccccc2C1(Cl)c1ccc(C#Cc2ccccc2)cc1 (centres undefined)
selectivity ratio [9]: 0.9
CC50 [7]: 215 µM

EC50 [17]: 0.55 µg/mL (≈ 1.51 µM)
EC50 [18]: 0.62 µg/mL (≈ 1.7 µM)
SMILES: Cn1cc(C(=O)O)c(=O)c2ccc(N3CCN(c4ccccn4)CC3)nc21

IC50 [19]: 270 nM
SMILES: COc1ccccc1C(=O)CC1(O)C(=O)Nc2ccc(Cl)cc21 (centres undefined)

EC50 [11]: 140 nM
SMILES: CC(C)(NC(=O)OCc1ccccc1)c1cc(O)c(O)c(C(=O)NCc2ccccc2Cl)c1

IC50 [16]: 77.5 µM
SMILES: COc1ccc(N2CCN(C(=O)CN(Cc3ccccc3)c3ccc(Cl)cc3)CC2)cc1
